# Laboratory results from patent US6191115A, “C-terminus modified heptapeptide LHRH analogs” (Abbott Laboratories, priority 1999, dated 2001).
# Non-standard residues stand in square brackets, D forms with d. Residues, ends and D or L forms follow the SMILES beside them. *: point of attachment. NHCH2CH2(piperidin-1-yl) = C1CCN(CCN*)CC1; dPhe(4-Cl) = N[C@H](Cc1ccc(Cl)cc1)C(=O)O; NH(2-(2-pyridyl)ethyl) = c1ccc(CCN*)nc1; NH(2-morpholinoethyl) = C(CN1CCOCC1)N*; d2Nal = N[C@H](Cc1ccc2ccccc2c1)C(=O)O; NMeY = CN[C@@H](Cc1ccc(O)cc1)C(=O)O; NHCH2(2-pyridyl) = c1ccc(CN*)nc1; d3Pal = N[C@H](Cc1cccnc1)C(=O)O; NH(3-picolyl) = c1cncc(CN*)c1; Nicotinoyl = O=C(c1cccnc1)*; NH(CH2)8NH2 = NCCCCCCCCN*; Agmatine = N=C(N)NCCCCN*; X9 = CC(C)NCCCCCCCCCCN*; X6 = N=C(N)NCCCCCCCCN*; NHCH2CH2NHMe = CNCCN*; X13 = C(CN*)CN1CCOCC1; X5 = C1CN2CCC1C(N*)C2; X1 = CC1CCCCN1CCCN*; X3 = O=C1CCCN1CCCN*; X7 = CN1CCCC1CCN*; X8 = Cn1cccc1CCN*
# Molecular target: T1, LH release from rat pituitary cells (Rattus norvegicus, UniProt P30969)
# T1 sequence (P30969 1-327): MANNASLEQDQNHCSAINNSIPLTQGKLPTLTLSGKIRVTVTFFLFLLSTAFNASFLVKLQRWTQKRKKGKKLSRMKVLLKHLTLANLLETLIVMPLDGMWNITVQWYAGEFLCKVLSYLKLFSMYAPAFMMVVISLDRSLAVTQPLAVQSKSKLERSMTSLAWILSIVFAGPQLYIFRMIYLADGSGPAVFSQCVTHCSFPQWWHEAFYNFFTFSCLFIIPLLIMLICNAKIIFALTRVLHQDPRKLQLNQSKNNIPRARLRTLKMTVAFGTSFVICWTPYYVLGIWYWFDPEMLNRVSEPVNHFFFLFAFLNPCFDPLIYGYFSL
# Assay: in vitro inhibition of LH release from rat pituitary cells (pA2)
# Type: cell-based
# Details: pA2 = negative logarithm of antagonist concentration required to shift the response curve of the agonist leuprolide to two-fold higher concentration
# Protocol: Representative compounds of the present invention were evaluated in vitro for inhibition of LH release from rat pituitary cells (pA2). Methods for the assay procedures arc described by F. Haviv, et al. J. Med. Chem., 32:2340-2344 (1989). Values of pA2 are the negative logarithms of the concentration of the particular antagonist test compound required to shift the response curve produced by the agonist leuprolide to two-fold higher concentration. Typically values of 7.0 or greater are indicative of good LHRH antagonist potency, with values of 8.0 or greater being preferred. Leuprolide LHRH agonist, disclosed and claimed in U.S. Pat. No. 4,005,063, has the structure 5-oxo-Pro^1 -His^2 -Trp^3 -Ser^4 -Tyr^5 -D-Leu^6 -Leu^7 -Arg^8 -Pro^9 -NHEt.
row,SMILES,LHRH antagonist potency (pA2)
1,"CC(=O)N[C@H](Cc1ccc2ccccc2c1)C(=O)N[C@H](Cc1ccc(Cl)cc1)C(=O)N[C@H](Cc1cccnc1)C(=O)N[C@@H](CO)C(=O)N(C)[C@@H](Cc1ccc(O)cc1)C(=O)N[C@H](CCCCNC(=O)c1cccnc1)C(=O)N[C@@H](CC(C)C)C(=O)NCCCCCCCCN [Example 18, NAcD2Nal-D4ClPhe-D3Pal-Ser-NMeTyr-DLys(Nic)-Leu-NH--(CH2)8 NH2] (Ac-[d2Nal][dPhe(4-Cl)][d3Pal]S[NMeY][dK](Nicotinoyl)L-{NH(CH2)8NH2})",8.48
2,"CNCCNC(=O)[C@H](CC(C)C)NC(=O)[C@@H](CCCCNC(=O)c1cccnc1)NC(=O)[C@H](Cc1ccc(O)cc1)N(C)C(=O)[C@H](CO)NC(=O)[C@@H](Cc1cccnc1)NC(=O)[C@@H](Cc1ccc(Cl)cc1)NC(=O)[C@@H](Cc1ccc2ccccc2c1)NC(C)=O [Example 19, NAcD2Nal-D4ClPhe-D3Pal-Ser-NMeTyr-DLys(Nic)-Leu-NH--(CH2)2 NHCH3] (Ac-[d2Nal][dPhe(4-Cl)][d3Pal]S[NMeY][dK](Nicotinoyl)L-NHCH2CH2NHMe)",9.70
3,"CC(=O)N[C@H](Cc1ccc2ccccc2c1)C(=O)N[C@H](Cc1ccc(Cl)cc1)C(=O)N[C@H](Cc1cccnc1)C(=O)N[C@@H](CO)C(=O)N(C)[C@@H](Cc1ccc(O)cc1)C(=O)N[C@H](CCCCNC(=O)c1cccnc1)C(=O)N[C@@H](CC(C)C)C(=O)NCCCCCCCCNC(=N)N [Example 20, NAcD2Nal-D4ClPhe-D3Pal-Ser-NMeTyr-DLys(Nic)-Leu-NH--(CH2)8 NH(C=NH)NH2] (Ac-[d2Nal][dPhe(4-Cl)][d3Pal]S[NMeY][dK](Nicotinoyl)L-X6)",8.39
4,"CC(=O)N[C@H](Cc1ccc2ccccc2c1)C(=O)N[C@H](Cc1ccc(Cl)cc1)C(=O)N[C@H](Cc1cccnc1)C(=O)N[C@@H](CO)C(=O)N(C)[C@@H](Cc1ccc(O)cc1)C(=O)N[C@H](CCCCNC(=O)c1cccnc1)C(=O)N[C@@H](CC(C)C)C(=O)NCCCCCCCCCCNC(C)C [Example 21, NAcD2Nal-D4ClPhe-D3Pal-Ser-NMeTyr-DLys(Nic)-Leu-NH--(CH2)10 NH-isopropyl] (Ac-[d2Nal][dPhe(4-Cl)][d3Pal]S[NMeY][dK](Nicotinoyl)L-X9)",8.42
5,"CC(=O)N[C@H](Cc1ccc2ccccc2c1)C(=O)N[C@H](Cc1ccc(Cl)cc1)C(=O)N[C@H](Cc1cccnc1)C(=O)N[C@@H](CO)C(=O)N(C)[C@@H](Cc1ccc(O)cc1)C(=O)N[C@H](CCCCNC(=O)c1cccnc1)C(=O)N[C@@H](CC(C)C)C(=O)NCCCCNC(=N)N [Example 22, NAcD2Nal-D4ClPhe-D3Pal-Ser-NMeTyr-DLys(Nic)-Leu-NH--(CH2)4 NH(C=NH)NH2] (Ac-[d2Nal][dPhe(4-Cl)][d3Pal]S[NMeY][dK](Nicotinoyl)L-Agmatine)",10.26
6,"CC(=O)N[C@H](Cc1ccc2ccccc2c1)C(=O)N[C@H](Cc1ccc(Cl)cc1)C(=O)N[C@H](Cc1cccnc1)C(=O)N[C@@H](CO)C(=O)N(C)[C@@H](Cc1ccc(O)cc1)C(=O)N[C@H](CCCCNC(=O)c1cccnc1)C(=O)N[C@@H](CC(C)C)C(=O)NCc1ccccn1 [Example 23, NAcD2Nal-D4ClPhe-D3Pal-Ser-NMeTyr-DLys(Nic)-Leu-NH--CH2 -(2-pyridine)] (Ac-[d2Nal][dPhe(4-Cl)][d3Pal]S[NMeY][dK](Nicotinoyl)L-{NHCH2(2-pyridyl)})",9.18
7,"CC(=O)N[C@H](Cc1ccc2ccccc2c1)C(=O)N[C@H](Cc1ccc(Cl)cc1)C(=O)N[C@H](Cc1cccnc1)C(=O)N[C@@H](CO)C(=O)N(C)[C@@H](Cc1ccc(O)cc1)C(=O)N[C@H](CCCCNC(=O)c1cccnc1)C(=O)N[C@@H](CC(C)C)C(=O)NCc1cccnc1 [Example 24, NAcD2Nal-D4ClPhe-D3Pal-Ser-NMeTyr-DLys(Nic)-Leu-NH--CH2 -(3-pyridine)] (Ac-[d2Nal][dPhe(4-Cl)][d3Pal]S[NMeY][dK](Nicotinoyl)L-{NH(3-picolyl)})",8.30
8,"CC(=O)N[C@H](Cc1ccc2ccccc2c1)C(=O)N[C@H](Cc1ccc(Cl)cc1)C(=O)N[C@H](Cc1cccnc1)C(=O)N[C@@H](CO)C(=O)N(C)[C@@H](Cc1ccc(O)cc1)C(=O)N[C@H](CCCCNC(=O)c1cccnc1)C(=O)N[C@@H](CC(C)C)C(=O)NC1CN2CCC1CC2 (stereo partly drawn) [Example 25, NAcD2Nal-D4ClPhe-D3Pal-Ser-NMeTyr-Dlys(Nic)-Leu-NH--(3-guinuclidine)] (Ac-[d2Nal][dPhe(4-Cl)][d3Pal]S[NMeY][dK](Nicotinoyl)L-X5)",10.02
9,"CC(=O)N[C@H](Cc1ccc2ccccc2c1)C(=O)N[C@H](Cc1ccc(Cl)cc1)C(=O)N[C@H](Cc1cccnc1)C(=O)N[C@@H](CO)C(=O)N(C)[C@@H](Cc1ccc(O)cc1)C(=O)N[C@H](CCCCNC(=O)c1cccnc1)C(=O)N[C@@H](CC(C)C)C(=O)NCCN1CCCCC1 [Example 26, NAcD2Nal-D4ClPhe-D3Pal-Ser-NMeTyr-DLys(Nic)-Leu-NH--CH2 --CH2 -(1-piperidine)] (Ac-[d2Nal][dPhe(4-Cl)][d3Pal]S[NMeY][dK](Nicotinoyl)L-{NHCH2CH2(piperidin-1-yl)})",9.30
10,"CC(=O)N[C@H](Cc1ccc2ccccc2c1)C(=O)N[C@H](Cc1ccc(Cl)cc1)C(=O)N[C@H](Cc1cccnc1)C(=O)N[C@@H](CO)C(=O)N(C)[C@@H](Cc1ccc(O)cc1)C(=O)N[C@H](CCCCNC(=O)c1cccnc1)C(=O)N[C@@H](CC(C)C)C(=O)NCCN1CCOCC1 [Example 27, NAcD2Nal-D4ClPhe-D3Pal-Ser-NMeTyr-DLys(Nic)-Leu-NH--CH2 --CH2 -(1-norpholine)] (Ac-[d2Nal][dPhe(4-Cl)][d3Pal]S[NMeY][dK](Nicotinoyl)L-{NH(2-morpholinoethyl)})",8.30
11,"CC(=O)N[C@H](Cc1ccc2ccccc2c1)C(=O)N[C@H](Cc1ccc(Cl)cc1)C(=O)N[C@H](Cc1cccnc1)C(=O)N[C@@H](CO)C(=O)N(C)[C@@H](Cc1ccc(O)cc1)C(=O)N[C@H](CCCCNC(=O)c1cccnc1)C(=O)N[C@@H](CC(C)C)C(=O)NCCc1ccccn1 [Example 28, NAcD2Nal-D4ClPhe-D3Pal-Ser-NMeTyr-DLys(Nic)-Leu-NH--CH2 --CH2 -(2-pyridine)] (Ac-[d2Nal][dPhe(4-Cl)][d3Pal]S[NMeY][dK](Nicotinoyl)L-{NH(2-(2-pyridyl)ethyl)})",8.10
12,"CC(=O)N[C@H](Cc1ccc2ccccc2c1)C(=O)N[C@H](Cc1ccc(Cl)cc1)C(=O)N[C@H](Cc1cccnc1)C(=O)N[C@@H](CO)C(=O)N(C)[C@@H](Cc1ccc(O)cc1)C(=O)N[C@H](CCCCNC(=O)c1cccnc1)C(=O)N[C@@H](CC(C)C)C(=O)NCCc1cccn1C [Example 29, NAcD2Nal-D4ClPhe-D3Pal-Ser-NMeTyr-DLys(Nic)-Leu-NH--CH2 --CH2 -[2-(1-methyl)pyrrole]] (Ac-[d2Nal][dPhe(4-Cl)][d3Pal]S[NMeY][dK](Nicotinoyl)L-X8)",8.30
13,"CC(=O)N[C@H](Cc1ccc2ccccc2c1)C(=O)N[C@H](Cc1ccc(Cl)cc1)C(=O)N[C@H](Cc1cccnc1)C(=O)N[C@@H](CO)C(=O)N(C)[C@@H](Cc1ccc(O)cc1)C(=O)N[C@H](CCCCNC(=O)c1cccnc1)C(=O)N[C@@H](CC(C)C)C(=O)NCCC1CCCN1C (stereo partly drawn) [Example 30, NAcD2Nal-D4ClPhe-D3Pal-Ser-NMeTyr-DLys(Nic)-Leu-NH--CH2 --CH2 -[2-(1-methyl)pyrrolidine]] (Ac-[d2Nal][dPhe(4-Cl)][d3Pal]S[NMeY][dK](Nicotinoyl)L-X7)",9.80
14,"CC(=O)N[C@H](Cc1ccc2ccccc2c1)C(=O)N[C@H](Cc1ccc(Cl)cc1)C(=O)N[C@H](Cc1cccnc1)C(=O)N[C@@H](CO)C(=O)N(C)[C@@H](Cc1ccc(O)cc1)C(=O)N[C@H](CCCCNC(=O)c1cccnc1)C(=O)N[C@@H](CC(C)C)C(=O)NCCCN1CCOCC1 [Example 31, NAcD2Nal-D4ClPhe-D3Pal-Ser-NMeTyr-DLys(Nic)-Leu-NH--CH2 CH2 CH2 -(1-morpholine)] (Ac-[d2Nal][dPhe(4-Cl)][d3Pal]S[NMeY][dK](Nicotinoyl)L-X13)",9.30
15,"CC(=O)N[C@H](Cc1ccc2ccccc2c1)C(=O)N[C@H](Cc1ccc(Cl)cc1)C(=O)N[C@H](Cc1cccnc1)C(=O)N[C@@H](CO)C(=O)N(C)[C@@H](Cc1ccc(O)cc1)C(=O)N[C@H](CCCCNC(=O)c1cccnc1)C(=O)N[C@@H](CC(C)C)C(=O)NCCCN1CCCCC1C (stereo partly drawn) [Example 32, NAcD2Nal-D4ClPhe-D3Pal-Ser-NMeTyr-DLys(Nic)-Leu-NH--CH2 CH2 CH2 -[1-(2-methyl)piperidine]] (Ac-[d2Nal][dPhe(4-Cl)][d3Pal]S[NMeY][dK](Nicotinoyl)L-X1)",9.07
16,"CC(=O)N[C@H](Cc1ccc2ccccc2c1)C(=O)N[C@H](Cc1ccc(Cl)cc1)C(=O)N[C@H](Cc1cccnc1)C(=O)N[C@@H](CO)C(=O)N(C)[C@@H](Cc1ccc(O)cc1)C(=O)N[C@H](CCCCNC(=O)c1cccnc1)C(=O)N[C@@H](CC(C)C)C(=O)NCCCN1CCCC1=O [Example 33, NAcD2Nal-D4ClPhe-D3Pal-Ser-NMeTyr-DLys(Nic)-Leu-NH--CH2 CH2 CH2 -(1-pyrrolidin-2-one)] (Ac-[d2Nal][dPhe(4-Cl)][d3Pal]S[NMeY][dK](Nicotinoyl)L-X3)",8.30
